Data: paper PMC11649115, “In vitro safety evaluation of dopamine D3R antagonist, R-VK4-116, as a potential medication for the treatment of opioid use disorder” (PLOS ONE, 2024)
Blank lines part the entries; values can stand above or below the molecule they belong to.

What was measured:
[1] = target: T1, CYP2C8 (Homo sapiens, UniProt P10632); assay: CYP inhibition in human liver microsomes; conditions: human
T1 sequence (P10632 1-490): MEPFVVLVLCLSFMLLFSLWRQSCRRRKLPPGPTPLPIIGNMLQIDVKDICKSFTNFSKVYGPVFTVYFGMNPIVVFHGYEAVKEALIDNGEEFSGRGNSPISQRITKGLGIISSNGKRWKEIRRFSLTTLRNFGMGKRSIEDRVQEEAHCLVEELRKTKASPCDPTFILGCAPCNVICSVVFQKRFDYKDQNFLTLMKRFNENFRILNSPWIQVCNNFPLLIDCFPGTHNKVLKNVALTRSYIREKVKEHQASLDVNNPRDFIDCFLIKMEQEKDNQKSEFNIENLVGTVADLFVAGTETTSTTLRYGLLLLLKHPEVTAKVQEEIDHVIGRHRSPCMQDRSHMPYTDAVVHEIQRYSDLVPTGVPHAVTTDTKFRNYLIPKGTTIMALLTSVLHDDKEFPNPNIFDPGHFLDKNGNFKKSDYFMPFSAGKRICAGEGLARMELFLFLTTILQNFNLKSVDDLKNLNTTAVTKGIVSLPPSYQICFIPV

[2] = target: T2, CYP2B6 (Homo sapiens, UniProt P20813); assay: CYP inhibition in human liver microsomes; conditions: human
T2 sequence (P20813 1-491): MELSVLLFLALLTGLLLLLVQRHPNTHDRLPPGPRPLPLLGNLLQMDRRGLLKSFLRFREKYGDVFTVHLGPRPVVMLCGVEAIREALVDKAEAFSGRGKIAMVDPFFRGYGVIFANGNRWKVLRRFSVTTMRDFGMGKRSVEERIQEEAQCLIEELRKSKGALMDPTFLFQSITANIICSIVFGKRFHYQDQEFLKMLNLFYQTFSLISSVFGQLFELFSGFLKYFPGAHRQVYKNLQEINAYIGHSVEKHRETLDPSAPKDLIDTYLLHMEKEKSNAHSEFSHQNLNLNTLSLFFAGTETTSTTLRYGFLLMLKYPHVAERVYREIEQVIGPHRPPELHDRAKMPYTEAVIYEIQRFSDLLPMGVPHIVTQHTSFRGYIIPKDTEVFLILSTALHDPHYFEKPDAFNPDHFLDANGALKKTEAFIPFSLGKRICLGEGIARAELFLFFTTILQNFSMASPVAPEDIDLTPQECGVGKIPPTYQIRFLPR

[3] = target: T3, OCT2 (Homo sapiens, UniProt O15244); assay: Transporter mediated assay (substrate/inhibitor), MDCK-II cells; type: in vitro ADME; conditions: human, polarized monolayer of MDCK-II cells expressing OCT2; OCT2, No BSA, 1000 μM
T3 construct: expressed in transfected cells; host or cells: MDCK-II cells
T3 sequence (O15244 1-555): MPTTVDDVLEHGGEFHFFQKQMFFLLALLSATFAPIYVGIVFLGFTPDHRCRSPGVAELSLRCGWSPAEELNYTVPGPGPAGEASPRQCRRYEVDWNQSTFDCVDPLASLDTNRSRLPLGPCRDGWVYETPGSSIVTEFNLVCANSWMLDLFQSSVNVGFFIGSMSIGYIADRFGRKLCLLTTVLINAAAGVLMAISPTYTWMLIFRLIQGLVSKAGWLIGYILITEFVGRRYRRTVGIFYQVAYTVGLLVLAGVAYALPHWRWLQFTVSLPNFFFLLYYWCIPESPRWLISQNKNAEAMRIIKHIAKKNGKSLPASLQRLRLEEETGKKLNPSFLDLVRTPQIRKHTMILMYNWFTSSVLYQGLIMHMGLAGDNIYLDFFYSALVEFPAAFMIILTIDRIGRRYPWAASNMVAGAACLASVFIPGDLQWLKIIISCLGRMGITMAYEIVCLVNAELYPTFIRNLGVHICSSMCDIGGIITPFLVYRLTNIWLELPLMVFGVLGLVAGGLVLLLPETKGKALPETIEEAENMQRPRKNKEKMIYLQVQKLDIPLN

[4] = target: T4, CYP1A2 (Homo sapiens, UniProt P05177); assay: CYP inhibition in human liver microsomes; conditions: human
T4 sequence (P05177 1-516): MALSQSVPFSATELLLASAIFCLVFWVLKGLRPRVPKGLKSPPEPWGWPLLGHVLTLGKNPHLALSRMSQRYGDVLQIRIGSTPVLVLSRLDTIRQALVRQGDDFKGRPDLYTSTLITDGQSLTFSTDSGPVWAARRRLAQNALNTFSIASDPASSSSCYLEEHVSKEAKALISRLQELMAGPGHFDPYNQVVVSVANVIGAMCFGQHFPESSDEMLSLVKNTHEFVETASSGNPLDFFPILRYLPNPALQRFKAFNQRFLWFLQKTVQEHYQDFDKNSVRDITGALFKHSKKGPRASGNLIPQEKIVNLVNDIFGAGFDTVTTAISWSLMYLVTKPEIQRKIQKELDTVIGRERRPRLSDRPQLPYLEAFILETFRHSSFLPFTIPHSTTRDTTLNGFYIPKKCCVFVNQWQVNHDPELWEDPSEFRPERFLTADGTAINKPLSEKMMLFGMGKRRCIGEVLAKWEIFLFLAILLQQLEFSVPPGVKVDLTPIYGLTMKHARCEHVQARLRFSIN

[5] = target: CYP2D6 (Homo sapiens, UniProt P10635); assay: CYP inhibition in human liver microsomes; conditions: human
[6] = target: T5, P-gp (Homo sapiens, UniProt P08183); assay: Transporter mediated assay (substrate/inhibitor), MDCK-II cells; type: in vitro ADME; conditions: P-gp, substrate test, 0.1 µM
T5 construct: expressed in transfected cells; host or cells: MDCK-II cells

[7] = target: CYP2C9 (Homo sapiens, UniProt P11712); assay: CYP inhibition in human liver microsomes; conditions: human
[8] = target: CYP2C19 (Homo sapiens, UniProt P33261); assay: CYP inhibition in human liver microsomes; conditions: human
[9] = target: T6, OAT3 (Homo sapiens, UniProt Q8TCC7); assay: Transporter mediated assay (substrate/inhibitor), MDCK-II cells; type: in vitro ADME; conditions: human; OAT3, No BSA, 100 μM
T6 construct: expressed in transfected cells; host or cells: MDCK-II cells
T6 sequence (Q8TCC7 1-542): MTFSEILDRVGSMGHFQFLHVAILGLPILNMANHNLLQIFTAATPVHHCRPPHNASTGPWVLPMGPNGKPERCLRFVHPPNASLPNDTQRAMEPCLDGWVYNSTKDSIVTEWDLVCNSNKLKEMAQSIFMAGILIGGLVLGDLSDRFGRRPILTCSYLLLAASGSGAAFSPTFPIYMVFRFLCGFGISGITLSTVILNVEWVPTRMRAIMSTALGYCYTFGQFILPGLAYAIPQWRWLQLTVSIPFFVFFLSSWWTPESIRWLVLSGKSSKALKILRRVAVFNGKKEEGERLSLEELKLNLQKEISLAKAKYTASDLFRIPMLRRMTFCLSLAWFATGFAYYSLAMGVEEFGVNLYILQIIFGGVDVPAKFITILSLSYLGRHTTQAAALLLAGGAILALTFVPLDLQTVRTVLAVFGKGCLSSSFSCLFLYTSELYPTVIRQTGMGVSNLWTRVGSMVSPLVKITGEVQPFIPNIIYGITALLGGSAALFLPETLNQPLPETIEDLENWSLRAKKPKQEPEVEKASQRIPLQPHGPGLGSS

[10] = target: CYP3A4 (Homo sapiens, UniProt P08684); assay: CYP inhibition in human liver microsomes
[11] = target: T7, OATP1B1 (Homo sapiens, UniProt Q9Y6L6); assay: Transporter mediated assay (substrate/inhibitor), MDCK-II cells; type: in vitro ADME; conditions: human, polarized monolayer of MDCK-II cells expressing OATP1B1; OATP1B1, No BSA, 100 μM
T7 construct: expressed in transfected cells; host or cells: MDCK-II cells
T7 sequence (Q9Y6L6 1-691): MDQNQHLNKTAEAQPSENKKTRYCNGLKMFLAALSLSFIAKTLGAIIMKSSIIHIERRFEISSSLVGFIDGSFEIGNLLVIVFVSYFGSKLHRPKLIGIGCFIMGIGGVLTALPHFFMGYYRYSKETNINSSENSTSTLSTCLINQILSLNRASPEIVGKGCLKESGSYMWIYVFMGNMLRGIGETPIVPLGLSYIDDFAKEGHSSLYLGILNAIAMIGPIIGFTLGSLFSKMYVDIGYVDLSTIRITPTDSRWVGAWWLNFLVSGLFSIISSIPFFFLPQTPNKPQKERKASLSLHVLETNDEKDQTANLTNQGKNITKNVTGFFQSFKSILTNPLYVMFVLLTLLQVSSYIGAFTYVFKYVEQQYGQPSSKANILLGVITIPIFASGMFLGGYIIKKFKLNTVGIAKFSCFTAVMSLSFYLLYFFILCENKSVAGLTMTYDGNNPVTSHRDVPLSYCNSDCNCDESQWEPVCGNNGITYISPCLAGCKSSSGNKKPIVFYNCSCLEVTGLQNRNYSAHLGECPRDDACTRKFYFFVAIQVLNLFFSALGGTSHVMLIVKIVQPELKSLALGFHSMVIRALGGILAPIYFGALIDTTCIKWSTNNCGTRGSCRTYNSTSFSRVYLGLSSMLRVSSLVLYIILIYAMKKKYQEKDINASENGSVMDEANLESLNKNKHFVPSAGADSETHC

[12] = target: T8, OATP1B3 (Homo sapiens, UniProt Q9NPD5); assay: as above; type: in vitro ADME; conditions: human, polarized monolayer of MDCK-II cells expressing OATP1B3; OATP1B3, No BSA, 100 μM
T8 construct: expressed in transfected cells; host or cells: MDCK-II cells
T8 sequence (Q9NPD5 1-702): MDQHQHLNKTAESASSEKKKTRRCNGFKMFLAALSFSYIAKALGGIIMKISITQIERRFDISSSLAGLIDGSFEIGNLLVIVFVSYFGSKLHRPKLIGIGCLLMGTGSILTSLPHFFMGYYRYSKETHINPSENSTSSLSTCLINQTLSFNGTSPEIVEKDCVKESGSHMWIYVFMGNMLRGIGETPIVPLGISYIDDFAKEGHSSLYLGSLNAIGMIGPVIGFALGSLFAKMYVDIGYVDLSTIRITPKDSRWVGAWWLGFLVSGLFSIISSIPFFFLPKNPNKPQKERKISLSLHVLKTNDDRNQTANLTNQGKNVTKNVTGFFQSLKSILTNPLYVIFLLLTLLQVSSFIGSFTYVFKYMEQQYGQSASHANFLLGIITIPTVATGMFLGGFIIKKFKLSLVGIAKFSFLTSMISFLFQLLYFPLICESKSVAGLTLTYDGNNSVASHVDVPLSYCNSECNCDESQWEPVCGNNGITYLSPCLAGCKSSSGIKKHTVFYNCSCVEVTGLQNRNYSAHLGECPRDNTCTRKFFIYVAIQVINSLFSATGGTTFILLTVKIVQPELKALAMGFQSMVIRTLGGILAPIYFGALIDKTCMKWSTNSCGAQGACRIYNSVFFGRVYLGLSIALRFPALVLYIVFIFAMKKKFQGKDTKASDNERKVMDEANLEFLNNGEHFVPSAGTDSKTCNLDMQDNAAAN

[13] = CYP activity (% of Control) 3A4 (Midazolam), substrate midazolam
[14] = CYP activity (% of Control) 3A4 (Testosterone), substrate testosterone

CYP2C19, sequence (P33261 whole entry): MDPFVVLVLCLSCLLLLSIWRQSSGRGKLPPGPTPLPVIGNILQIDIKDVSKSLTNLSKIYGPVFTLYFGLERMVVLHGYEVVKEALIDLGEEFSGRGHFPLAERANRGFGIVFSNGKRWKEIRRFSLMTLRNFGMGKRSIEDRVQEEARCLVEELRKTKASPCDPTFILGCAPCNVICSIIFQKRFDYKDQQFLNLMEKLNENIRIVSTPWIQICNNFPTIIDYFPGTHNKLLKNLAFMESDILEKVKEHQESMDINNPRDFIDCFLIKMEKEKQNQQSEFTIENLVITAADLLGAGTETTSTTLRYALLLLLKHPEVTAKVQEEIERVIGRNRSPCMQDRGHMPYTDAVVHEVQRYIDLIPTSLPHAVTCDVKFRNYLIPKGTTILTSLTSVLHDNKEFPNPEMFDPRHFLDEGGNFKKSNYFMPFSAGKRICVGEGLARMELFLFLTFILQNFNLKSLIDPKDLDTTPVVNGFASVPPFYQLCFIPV
T5 sequence (P08183 whole entry): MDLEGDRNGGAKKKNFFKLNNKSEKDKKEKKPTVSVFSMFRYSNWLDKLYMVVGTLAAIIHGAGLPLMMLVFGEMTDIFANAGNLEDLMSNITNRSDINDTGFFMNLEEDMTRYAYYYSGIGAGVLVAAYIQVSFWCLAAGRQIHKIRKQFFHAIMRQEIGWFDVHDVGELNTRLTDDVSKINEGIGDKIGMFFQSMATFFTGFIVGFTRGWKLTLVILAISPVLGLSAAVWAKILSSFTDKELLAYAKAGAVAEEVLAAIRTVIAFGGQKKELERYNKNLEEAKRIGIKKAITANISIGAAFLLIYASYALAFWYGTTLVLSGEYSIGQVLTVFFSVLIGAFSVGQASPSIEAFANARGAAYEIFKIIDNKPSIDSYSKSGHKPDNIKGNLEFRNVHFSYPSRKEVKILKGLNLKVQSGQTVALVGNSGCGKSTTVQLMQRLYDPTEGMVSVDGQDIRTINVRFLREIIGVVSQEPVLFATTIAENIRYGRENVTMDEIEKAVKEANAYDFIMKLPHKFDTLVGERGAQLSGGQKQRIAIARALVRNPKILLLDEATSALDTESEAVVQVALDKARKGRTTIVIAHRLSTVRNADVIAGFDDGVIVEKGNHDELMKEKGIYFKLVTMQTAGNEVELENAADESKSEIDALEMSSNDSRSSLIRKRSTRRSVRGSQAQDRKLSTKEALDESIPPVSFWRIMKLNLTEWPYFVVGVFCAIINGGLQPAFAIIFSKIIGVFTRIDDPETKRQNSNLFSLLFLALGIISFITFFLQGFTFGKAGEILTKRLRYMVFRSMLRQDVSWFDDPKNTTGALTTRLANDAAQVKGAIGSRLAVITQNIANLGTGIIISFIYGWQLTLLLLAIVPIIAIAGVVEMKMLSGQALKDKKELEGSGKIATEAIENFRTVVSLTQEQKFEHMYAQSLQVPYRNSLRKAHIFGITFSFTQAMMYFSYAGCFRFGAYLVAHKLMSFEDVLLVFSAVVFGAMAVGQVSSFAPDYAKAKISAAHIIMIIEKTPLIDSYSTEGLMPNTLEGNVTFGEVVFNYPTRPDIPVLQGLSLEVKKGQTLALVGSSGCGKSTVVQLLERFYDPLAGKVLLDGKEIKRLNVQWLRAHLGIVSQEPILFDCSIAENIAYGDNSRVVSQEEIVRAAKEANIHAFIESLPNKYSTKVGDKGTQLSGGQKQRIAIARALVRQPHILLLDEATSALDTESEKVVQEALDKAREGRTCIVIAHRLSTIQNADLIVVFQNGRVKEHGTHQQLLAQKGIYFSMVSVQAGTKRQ
CYP3A4, sequence (P08684 2-503): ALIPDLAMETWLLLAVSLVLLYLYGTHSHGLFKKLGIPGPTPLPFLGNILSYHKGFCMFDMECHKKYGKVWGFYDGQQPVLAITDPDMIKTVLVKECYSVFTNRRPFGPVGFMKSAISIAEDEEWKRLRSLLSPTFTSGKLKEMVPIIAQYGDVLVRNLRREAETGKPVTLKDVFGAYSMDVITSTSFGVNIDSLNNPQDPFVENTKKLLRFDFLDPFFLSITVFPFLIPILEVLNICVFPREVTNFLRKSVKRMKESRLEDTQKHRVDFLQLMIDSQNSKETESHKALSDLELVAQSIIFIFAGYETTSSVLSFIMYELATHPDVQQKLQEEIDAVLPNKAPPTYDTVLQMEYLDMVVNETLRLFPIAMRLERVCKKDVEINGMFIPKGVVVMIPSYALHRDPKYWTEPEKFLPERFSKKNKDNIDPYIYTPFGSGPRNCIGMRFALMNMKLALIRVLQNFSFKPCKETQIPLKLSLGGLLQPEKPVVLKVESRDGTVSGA
CYP2D6, sequence (P10635 whole entry): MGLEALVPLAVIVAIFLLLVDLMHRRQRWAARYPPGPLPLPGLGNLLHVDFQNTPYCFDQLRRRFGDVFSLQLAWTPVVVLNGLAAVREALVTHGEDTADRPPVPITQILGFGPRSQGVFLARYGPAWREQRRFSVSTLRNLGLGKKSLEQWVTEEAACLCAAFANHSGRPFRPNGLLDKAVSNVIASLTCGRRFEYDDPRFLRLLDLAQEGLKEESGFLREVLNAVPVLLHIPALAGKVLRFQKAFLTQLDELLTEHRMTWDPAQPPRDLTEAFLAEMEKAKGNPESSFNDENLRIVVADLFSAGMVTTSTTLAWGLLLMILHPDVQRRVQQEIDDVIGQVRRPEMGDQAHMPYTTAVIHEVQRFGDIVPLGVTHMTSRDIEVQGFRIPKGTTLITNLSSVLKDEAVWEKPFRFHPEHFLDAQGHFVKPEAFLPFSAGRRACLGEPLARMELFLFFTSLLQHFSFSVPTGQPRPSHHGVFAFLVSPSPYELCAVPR
CYP2C9, sequence (P11712 whole entry): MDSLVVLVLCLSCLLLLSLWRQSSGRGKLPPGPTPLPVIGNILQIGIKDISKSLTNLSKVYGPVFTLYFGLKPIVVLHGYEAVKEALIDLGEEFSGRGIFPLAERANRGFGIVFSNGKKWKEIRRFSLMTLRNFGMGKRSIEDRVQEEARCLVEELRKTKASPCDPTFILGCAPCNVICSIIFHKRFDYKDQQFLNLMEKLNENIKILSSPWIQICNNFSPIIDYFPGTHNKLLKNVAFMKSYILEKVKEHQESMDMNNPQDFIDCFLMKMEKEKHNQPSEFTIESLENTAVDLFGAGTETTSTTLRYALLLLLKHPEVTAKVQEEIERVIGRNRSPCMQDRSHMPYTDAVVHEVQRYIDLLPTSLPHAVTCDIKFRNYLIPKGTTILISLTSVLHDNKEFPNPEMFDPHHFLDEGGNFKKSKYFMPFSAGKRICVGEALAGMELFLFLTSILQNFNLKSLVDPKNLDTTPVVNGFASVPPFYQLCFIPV

Compound: C=C[C@H]1C[N@@]2CC[C@H]1C[C@@H]2[C@@H](O)c1ccnc2ccc(OC)cc12 [quinidine, reference compound]
activity at 20 min, 2 µM ([1]; human liver microsomes, probe paclitaxel): 71.3 ± 2.2%
activity at 20 min, 2 µM ([2]; human liver microsomes, probe bupropion): 91.6 ± 2.4%
inhibition at 1000 µM [3]: 100 ± 0.21%
activity at 20 min, 2 µM ([4]; human liver microsomes, probe phenacetin): 88.3 ± 1%
activity at 20 min, 2 µM ([5]; human liver microsomes, probe bufuralol): 17.3 ± 0.2%
Vectorial Net Transport (B->A) - (A->B) [6]: 0.52 ± 0.03 pmoles/min/cm^2
Papp A→B at 0.1 µM ([6]; human, MDCK-MDR1): 2.62 ± 0.42 ×10⁻⁶ cm/s
Papp B→A at 0.1 µM ([6]; human, MDCK-MDR1): 80.7 ± 4.23 ×10⁻⁶ cm/s
activity at 20 min, 2 µM ([7]; human liver microsomes, probe diclofenac): 82.7 ± 1.1%
activity at 20 min, 2 µM ([8]; human liver microsomes, probe mephenytoin): 97.7 ± 2.3%

inhibition at 100 µM [9]: 95.3 ± 0.73%
Compound: CCCN(CCC)S(=O)(=O)c1ccc(C(=O)O)cc1 [probenecid, reference compound]

Compound: S=P(N1CC1)(N1CC1)N1CC1 [ThioTEPA]
activity at 20 min, 10 µM ([1]; microsomes): 96.8 ± 4.4%
activity at 20 min, 10 µM ([2]; microsomes): 52 ± 0.1%
activity at 20 min, 10 µM ([4]; microsomes): 93.8 ± 4.3%
activity at 20 min, 10 µM ([5]; microsomes): 90.7 ± 2%
activity at 20 min, 10 µM [10, 13]: 92.6 ± 2.2%
activity at 20 min, 10 µM [10, 14]: 91.4 ± 1.3%
activity at 20 min, 10 µM ([7]; microsomes): 92.9 ± 1.5%
activity at 20 min, 10 µM ([8]; microsomes): 108 ± 4.3%

Compound: C=C(C)[C@@H]1CCC2=CC(=O)C[C@@H](C)[C@]2(C)C1 [Nootkatone]
activity at 20 min, 30 µM ([1]; microsomes): 78.8 ± 12.5%
activity at 20 min, 30 µM ([2]; microsomes): 23.8 ± 2.7%
activity at 20 min, 30 µM ([4]; microsomes): 91.3 ± 4.8%
activity at 20 min, 30 µM ([5]; microsomes): 91.9 ± 8.4%
activity at 20 min, 30 µM [10, 13]: 84.5 ± 4%
activity at 20 min, 30 µM [10, 14]: 79.4 ± 5.4%
activity at 20 min, 30 µM ([7]; microsomes): 84.6 ± 8.5%
activity at 20 min, 30 µM ([8]; microsomes): 57.3 ± 5.7%

inhibition at 100 µM [11]: 98.3 ± 1.37%
inhibition at 100 µM [12]: 99.2 ± 0.26%
Compound: CO[C@H]1/C=C/O[C@@]2(C)Oc3c(C)c(O)c4c(O)c(c(/C=N/N5CCN(C)CC5)c(O)c4c3C2=O)NC(=O)/C(C)=C\C=C\[C@H](C)[C@H](O)[C@@H](C)[C@@H](O)[C@@H](C)[C@H](OC(C)=O)[C@@H]1C [Rifampicin, reference compound]
